Laboratory results published in patent US20240066137A1, “NOVEL PROTEIN CONJUGATE, AND USE THEREOF FOR PREVENTING OR TREATING NONALCOHOLIC STEATOHEPATITIS, OBESITY AND DIABETES” (ONEGENE BIOTECHNOLOGY INC., priority 2020, published 2024).
Like-named read-outs stand apart in the source and are kept apart here.

Legend:
GLP-1R (GLP-1 acceptor) = GLP-1R (GLP-1 acceptor) (Homo sapiens, UniProt P43220); assay: cAMP accumulation assay, GLP-1 acceptor overexpressing cells
[1] = tested on: C57BL/6J mice in which fatty liver was induced by feeding MCD; assay: In-vivo efficacy against non-alcoholic steatohepatitis (MCD diet mice); set-up: species or system mouse; ALT / Hepatic TGF-β / Hepatic Triglyceride: unit not given here; details: for ALT: dulaglutide 2 nmol/kg s.c. 1 time/2 days, 14 times; for Hepatic TGF-β: liver tissue ELISA; for Hepatic Triglyceride / Lobular inflammation score (Lobular inflammation) / NAS (NAFLD Activity Score) / Steatosis score (Steatosis): liver tissue
Description: The MCD mouse model is the most typically used method for efficacy testing against non-alcoholic steatohepatitis, and it is known that the histological appearance of the induced liver tissue from week 2 to week 4 is histologically similar to that of human non-alcoholic steatohepatitis. There are many precedent cases in which a number of pharmaceutical companies and academia conducted tests with various substances.
Fatty liver was induced by feeding MCD to male C57BL/6J mice for 8 weeks, and then the mice were divided into 6 groups shown in Table 7 below, and drug administration was performed for 4 weeks. As a comparative substance, two currently commercially available drugs, liraglutide (Saxenda) and dulaglutide (Trulycity), were used. The administered composition was repeatedly administered subcutaneously using a disposable syringe according to each administration cycle. […] The normal control group was fed with MCS (Methionine and Choline Sufficient L-Amino Acid Diet).
During the 4-week administration period, general symptoms and behavior were observed, and body weight was measured once a week after the start of administration and on the day of tissue extraction. Blood collection and liver tissue extraction were performed on the day of the end of observation, and blood was subjected to a hematological-biochemical test, and the extracted liver tissue was subjected to a histopathological test.
Alanine aminotransferase (ALT), which is used as the most basic indicator of liver disease, was measured through a hematological-biochemical test, and the results are shown in Table 8 below and FIG. 21.
In addition, histopathological test was performed by observation through H&E and Masson's trichrome staining, and the results are shown in FIG. 23. In the case of non-alcoholic steatohepatitis, steatosis and inflammation in lobules occurs, and inflammatory cells can be identified by tissue staining.
In addition, based on the evaluation criteria shown in Table 10 below, steatosis score, lobular inflammation score, and NAS (NAFLD activity score) were evaluated.
In addition, triglyceride accumulation in the liver tissue was analyzed using the Triglyceride Assay Kit, and the results are shown in Table 15 below and FIG. 28.
The mice were divided into 4 groups shown in Table 16 below, and the experiment was conducted in the same manner as in Test Example 4 above. As a comparative substance, the currently commercially available dulaglutide (Trulycity) was used.

NF-κB activity by IL-1β = assay: NF-κB reporter gene luciferase assay; format: cell-based; details: IL-1β stimulated
Description: The cells were cultured to 70-80% full in a T-75 flask. The medium was removed and washed once with 5 mL of the pre-warmed PBS. PBS was removed, and 1 mL of TryPLE Express was added, and incubated for 5 minutes in an incubator at 37° C. and 5% CO2, and the cells were detached. It was mixed with 4 mL of assay medium (10% FBS, 1% antibiotic in DMEM), and the mixture was transferred to a 15 mL tube, centrifuged at 1,000 rpm for 3 minutes, and then again released in 5 mL of assay medium. The number of cells was counted, and the concentration was allowed to be 500,000 cells/mL. It was transferred to a reservoir, and 40 μL per well was dispensed into a white 96-well half-area cell culture plate using a multi-channel pipette (20,000 cells/well). Only 40 μL of assay medium was dispensed into the blank well. The cells were incubated in an incubator at 37° C. and 5% CO2 for 24 hours to allow to be attached.
5 μL of each of the reference (10×) and sample (10×) prepared by 4-fold serial dilution was dispensed in duplicate. Thereafter, 5 μL of 50 pM IL-1β (10×) was dispensed and incubated in an incubator at 5% CO2 for 4 hours. 50 μL of ONE-Glo reagent (Promega, Cat. No. E6120) was each dispensed and cultured at room temperature for 5 minutes, and then the luminescence was measured with a Synergy Neo2 instrument. At this time, before treatment with ONE-Glo reagent, the plate was removed from the incubator for 15 minutes and allowed to reach room temperature.
The Delta RLU (relative luminescence unit) (ΔRLU) was calculated as follows.
ΔRLU=RLUsample−RLUblank=Signal−background luminescence
The IC50 values were obtained as ΔRLU by each concentration using GraphPad Prism 8, as follows (curve-fitting of the log (antagonist) vs. normalized response−variable slope equation).
In order to test the ability of the native IL-1RA and the IL-1RA analogue to inhibit NF-κB activity by IL-1β at the cellular level (in vitro), the NF-κB reporter gene luciferase assay was performed in the same manner as in Test Example 3.

[2] = Test Example 4, dulaglutide 2 nmol/kg
[3] = Test Example 5, dulaglutide 2 nmol/kg

GLP-1R (GLP-1 acceptor), sequence (P43220 24-463): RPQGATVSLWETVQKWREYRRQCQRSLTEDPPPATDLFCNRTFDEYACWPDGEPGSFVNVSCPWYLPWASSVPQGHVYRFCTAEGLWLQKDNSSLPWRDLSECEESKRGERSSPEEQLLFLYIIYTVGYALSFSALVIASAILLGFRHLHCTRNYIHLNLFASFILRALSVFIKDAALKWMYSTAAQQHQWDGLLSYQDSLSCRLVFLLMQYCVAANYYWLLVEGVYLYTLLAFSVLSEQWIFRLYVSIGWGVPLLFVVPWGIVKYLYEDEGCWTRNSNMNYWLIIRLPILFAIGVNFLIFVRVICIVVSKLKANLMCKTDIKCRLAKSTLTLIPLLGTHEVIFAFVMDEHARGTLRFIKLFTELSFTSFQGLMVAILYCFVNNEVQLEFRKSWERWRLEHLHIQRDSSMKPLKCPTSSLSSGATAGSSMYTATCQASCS

With Dulaglutide [reference compound] the EC50 (GLP-1R (GLP-1 acceptor); Test Example 9 screening, Cell line: Stable) was 0.00145 ± 0.00045 nM, the EC50 (GLP-1R (GLP-1 acceptor); read-out: EC50 GLP-1R, 1, Test Example 1, run 1) was 0.00123 nM and the EC50 (GLP-1R (GLP-1 acceptor); read-out: EC50 GLP-1R, Mean, Test Example 1, mean of 2 runs) was 0.00107 nM. The ALT ([1]; Test Example 4, blood) was 220.5, the “Hepatic TGF-β” value [1, 2] was 159.60 and the “Hepatic Triglyceride” value [1, 2] was 40.78. For the same substance, the “Lobular inflammation score (Lobular inflammation)” value [1, 2] was 1.5, the “NAS (NAFLD Activity Score)” value [1, 2] was 3.4 and the “Steatosis score (Steatosis)” value [1, 2] was 1.9. The AST/ALT value ([1]; Test Example 5, blood, dulaglutide 2 nmol/kg) was 0.76, the ALT ([1]; Test Example 5, blood) was 246.8 and the “Hepatic TGF-β” value [1, 3] was 165.3. For the same substance, the “Hepatic Triglyceride” value [1, 3] was 36.08, the “Lobular inflammation score (Lobular inflammation)” value [1, 3] was 1.6 and the “NAS (NAFLD Activity Score)” value [1, 3] was 3.4. The “Steatosis score (Steatosis)” value [1, 3] was 1.8.

rhIL-1RA: native IL-1RA, SEQ ID NO: 27 was tested, and the IC50 (NF-κB activity by IL-1β; Test Example 3, mean of 4 runs, read-out: IC50, Mean) was 0.0475 nM, the IC50 (NF-κB activity by IL-1β; Test Example 3, run 1, read-out: IC50, 1) was 0.0399 nM and the IC50 (NF-κB activity by IL-1β; Test Example 3, run 2, read-out: IC50, 2) was 0.0515 nM. The IC50 (NF-κB activity by IL-1β; Test Example 3, run 3, read-out: IC50, 3) was 0.0466 nM, the IC50 (NF-κB activity by IL-1β; Test Example 3, run 4, read-out: IC50, 4) was 0.0519 nM and the IC50 (NF-κB activity by IL-1β; Test Example 9 screening, read-out: IC50) was 0.0686 ± 0.00771 nM.
